According to patent US4436733A, “4"- And 3-ester derivatives of DMT and DMOT” (Eli Lilly and Company, priority 1982, dated 1984):

Legend:
[1] = test system: Staphylococcus aureus V41; assay: standard agar-dilution assay, MIC; format: cell-based; settings: Staphylococcus aureus V41, penicillin resistant strain
Procedure: (§1) The MIC's in Table III were determined by standard agar-dilutionassays. The MIC's in Table IV were obtained using a conventional broth-dilution microtiter test.
^b Penicillinresistant strain

[2] = test system: Streptococcus Group D X66; assay: standard agar-dilution assay, MIC; format: cell-based
Procedure: as §1

[3] = test system: Streptococcus pyogenes C203; assay: standard agar-dilution assay, MIC; format: cell-based
Procedure: as §1

[4] = test system: Staphylococcus epidermidis EPI1; assay: standard agar-dilution assay, MIC; format: cell-based
Procedure: as §1

[5] = test system: Streptococcus pneumoniae Park I; assay: standard agar-dilution assay, MIC; format: cell-based
Procedure: as §1

[6] = test system: Staphylococcus aureus X1.1; assay: standard agar-dilution assay, MIC; format: cell-based
Procedure: as §1

[7] = test system: Staphylococcus aureus S13E; assay: standard agar-dilution assay, MIC; format: cell-based
Procedure: as §1

[8] = test system: Streptococcus Group 9960; assay: standard agar-dilution assay, MIC; format: cell-based
Procedure: as §1

[9] = test system: Staphylococcus epidermidis EPI2; assay: standard agar-dilution assay, MIC; format: cell-based
Procedure: as §1

[10] = test system: Pasteurella multocida 60A; assay: conventional broth-dilution microtiter test, MIC; format: cell-based; settings: avian isolate
Procedure: as §1

[11] = test system: Mycoplasma synoviae; assay: conventional broth-dilution microtiter test, MIC; format: cell-based
Procedure: as §1

[12] = test system: Streptococcus sp. 80; assay: conventional broth-dilution microtiter test, MIC; format: cell-based
Procedure: as §1

[13] = test system: Pasteurella multocida 17E; assay: conventional broth-dilution microtiter test, MIC; format: cell-based; settings: bovine isolate
Procedure: as §1

[14] = test system: Mycoplasma hyorhinis; assay: conventional broth-dilution microtiter test, MIC; format: cell-based
Procedure: as §1

[15] = test system: Mycoplasma gallisepticum; assay: conventional broth-dilution microtiter test, MIC; format: cell-based
Procedure: as §1

[16] = test system: Staphylococcus aureus; assay: conventional broth-dilution microtiter test, MIC; format: cell-based
Procedure: as §1

[17] = test system: Staphylococcus aureus X400; assay: standard agar-dilution assay, MIC; format: cell-based; settings: Staphylococcus aureus X400, methicillin resistant strain
Procedure: as §1
^c Methicillinresistant-strain

[18] = test system: Streptococcus pyogenes C203; assay: experimental bacterial infection in mice, ED50; format: in vivo; settings: C203, po, read-out: ED50 (effective dose to protect 50% of the test animals)
Procedure: The ester derivatives of this invention have shown in vivo antimicrobial activity against experimental bacterial infections caused by gram-positivebacteria. When two doses of test compound were administered to mice with experimental infections, the activity observed was measured as an ED50 value [effective dose in mg/kg to protect 50% of the test animals: see Warren Wick, et al., J. Bacteriol. 81, 233-235 (1961)].
^a mg/kg × 2; doses given 1 and 5 hours postinfection

SMILES | MIC (minimal inhibitory concentration) [1] | MIC (minimal inhibitory concentration) [2] | MIC (minimal inhibitory concentration) [3] | MIC (minimal inhibitory concentration) [4] | MIC (minimal inhibitory concentration) [5] | MIC (minimal inhibitory concentration) [6] | MIC (minimal inhibitory concentration) [7] | MIC (minimal inhibitory concentration) [8] | MIC (minimal inhibitory concentration) [9] | MIC (minimal inhibitory concentration) [10] | MIC (minimal inhibitory concentration) [11] | MIC (minimal inhibitory concentration) [12] | MIC (minimal inhibitory concentration) [13] | MIC (minimal inhibitory concentration) [14] | MIC (minimal inhibitory concentration) [15] | MIC (minimal inhibitory concentration) [16] | MIC (minimal inhibitory concentration) [17] | ED50 [18]
CCC(=O)OCC1C=C(C)C=CC(=O)C(C)CC(CC=O)C(OC2OC(C)C(OC3CC(C)(O)C(OC(=O)CC)C(C)O3)C(N(C)C)C2OC(C)=O)C(C)C(O)CC(=O)OC1CC (centres unmarked) [Compound 3, 2'-O-Acetyl-23,4"-Di-O-Propionyl-DMT] | 1 | 1 | 0.25 | 0.5 | 0.125 | 0.5 | 0.5 | 1 | 1 | 12.5 | 0.78 | 0.78 | 12.5 | 0.39 | 0.097 | 0.78 | 1 | –
CCC1OC(=O)CC(O)C(C)C(OC2OC(C)C(OC3CC(C)(O)C(OC(=O)Cc4ccccc4)C(C)O3)C(N(C)C)C2OC(C)=O)C(CC=O)CC(C)C(=O)C=CC(C)=CC1COC(=O)Cc1ccccc1 (centres unmarked) [Compound 5, 2'-O-Acetyl-23,4"-Di-O-Phenylacetyl-DMT] | 1 | 2 | – | 1 | – | 1 | 1 | 2 | 2 | > 50 | 12.5 | 1.56 | > 50 | 6.25 | 1.56 | 50 | 2 | > 144 mg/kg
CCC1OC(=O)CC(O)C(C)C(OC2OC(C)C(OC3CC(C)(O)C(OC(=O)COc4ccccc4)C(C)O3)C(N(C)C)C2OC(C)=O)C(CC=O)CC(C)C(=O)C=CC(C)=CC1COC(=O)COc1ccccc1 (centres unmarked) [Compound 7, 2'-O-Acetyl-4",23-Di-O-Phenoxyacetyl-DMT] | 64 | 32 | 8 | 32 | 1 | 32 | 32 | 16 | 128 | > 50 | – | 0.78 | > 50 | 0.78 | 0.78 | 12.5 | 64 | –
CCC1OC(=O)CC(OC(=O)COc2ccccc2)C(C)C(OC2OC(C)C(OC3CC(C)(O)C(O)C(C)O3)C(N(C)C)C2OC(C)=O)C(CC=O)CC(C)C(=O)C=CC(C)=CC1COC(=O)COc1ccccc1 (centres unmarked) [Compound 8, 2'-O-Acetyl-3,23-Di-O-Phenoxyacetyl-DMT] | 1 | 0.5 | 0.125 | 1 | 0.125 | 0.5 | 0.5 | 0.25 | 1 | – | – | – | – | – | – | – | 1 | –
CCC(=O)OCC1C=C(C)C=CC(=O)C(C)CC(CC=O)C(OC2OC(C)C(OC3CC(C)(O)C(OC(=O)CC)C(C)O3)C(N(C)C)C2OC(C)=O)C(C)C(OC(=O)CC)CC(=O)OC1CC (centres unmarked) [Compound 9, 2'-O-Acetyl-3,23,4"-Tri-O-Propionyl-DMT] | 1 | 1 | 0.5 | 1 | 0.25 | 1 | 1 | 1 | 2 | > 50 | 0.78 | 1.56 | > 50 | 0.78 | 0.78 | 1.56 | 1 | –
CCC1OC(=O)CC(O)C(C)C(OC2OC(C)C(OC3CC(C)(O)C(OC(=O)Cc4ccccc4)C(C)O3)C(N(C)C)C2OC(C)=O)C(CC=O)CC(C)C(=O)C=CC(C)=CC1C (centres unmarked) [Compound 20, 2'-O-Acetyl-4"-O-Phenylacetyl-DMOT] | > 128 | > 128 | 128 | > 128 | 32 | > 128 | > 128 | > 128 | > 128 | 50 | 50 | 50 | 50 | 50 | 6.25 | 25 | > 128 | –
CCC1OC(=O)CC(O)C(C)C(OC2OC(C)C(OC3CC(C)(O)C(OC(=O)Cc4ccccc4)C(C)O3)C(N(C)C)C2O)C(CC=O)CC(C)C(=O)C=CC(C)=CC1C (centres unmarked) [Compound 21, 4"-O-Phenylacetyl-DMOT] | 16 | 8 | 4 | 8 | 0.5 | 8 | 8 | 16 | 16 | 50 | 6.25 | 6.25 | > 50 | 3.12 | 0.78 | 12.5 | 16 | –
